The values below come from patent US20180085356A1, “METHOD OF TREATING DISEASE CHARACTERISED BY PROTEIN AGGREGATE DEPOSITION IN NEURONAL CELLS” (CHRONOS THERAPEUTICS LIMITED, priority 2013, published 2018).

In data set [1] the test system is C. elegans expressing human alpha-synuclein in the body wall muscle. Kind of data set: C. elegans lifespan assay, alpha-synuclein strain. It counts as in vivo, Caenorhabditis elegans. To be noted: p<0.05 DMSO vs. Tacrolimus. On the procedure:
Tacrolimus was tested in a number of disease models using the nematode worm, Caenorhabditis elegans, in which aggregate-prone proteins associated with neurodegenerative diseases are expressed in certain cell types. The effect of tacrolimus was determined by measuring the lifespan of worms in the presence and absence of tacrolimus, using the following general methodology. All of the worms tested using these assays also contained, in addition to the transgene expressing the disease-related protein, a mutation in the bus-5 gene which confers drug-sensitivity.
C. elegans cultures were synchronised by incubating an asynchronous culture in basic sodium hypochlorite solution to kill everything but the bleach-resistant mature eggs. The eggs were added on to agar plates and then allowed to hatch and develop in the presence of the test compound (or vehicle) and bacterial food source. […] From this point on, each ageing population was inspected at regular intervals (e.g. daily) and viability assessed by counting the number of dead worms.
The cumulative number of dead worms for each population was used to generate a survival/viability plot to determine chronological lifespan (CLS). Survival was analysed using the Kaplan-Meier log-rank survival analysis method, using the Online Application for Survival (OASIS; see http://sbi.postech.ac.kr/oasis). […]

Data set [2] relates to primary motor neuron (MN) cultures generated from rat spinal cord. The experiment in a line: Motor neuron culture with Aβ1-42 insult: neurite network and survival (MAP-2 staining). The class given is cell-based. To be noted: 24 hours after 20 μM Aβ1-42 insult, treated 1 hour before. As to the method: Primary motor neuron (MN) cultures generated from rat spinal cord were treated with 20 μM amyloid beta 1-42 peptide (Aβ1-42). […] This model was used to determine the effect of tacrolimus on TDP-43 toxicity in motor neurons. […] After permeabilisation with 0.1% saponin, one group of cells was incubated for 2 hours with a) mouse monoclonal anti-microtubule-associated-protein 2 (MAP-2) antibody, and b) rabbit polyclonal anti-TDP-43 antibody. The anti-MAP-2 antibody was used to determine MN survival (number of stained MN) and MN neurite length. The anti-TDP-43 antibody was used to examine extranuclear TDP-43: the area of extranuclear TDP-43 staining per MN was calculated by normalising to the number of MAP-2 positive cells.

The subject of data set [3] is unilaterally 6-OHDA-lesioned rats. Kind of data set: Amphetamine-induced rotational asymmetry in unilaterally 6-OHDA-lesioned rats. It counts as in vivo, rat. As to conditions: 1 mg/kg s.c. 6 days/week, by 6 months, compared to baseline; p<0.05 vs. vehicle at 6 months. The text has this: The objective of this study was to investigate the effect of chronic subcutaneous (s.c) tacrolimus treatment in an aged rat model of Parkinson's disease. Lesion of dopaminergic projections was created by unilateral injection of 6-hydroxydopamine (6-OHDA) in the right medial forebrain bundle (MFB), causing a widespread de-afferentation of substantia nigra pars compacta (SNc) and ventral tegmental area (VTA) terminal fields. The animals can then be monitored for amphetamine-induced rotation asymmetry behaviour: because the lesion is unilateral, asymmetric movement is observed. The degree to which a drug treatment is able to counteract the effects of the lesion can be measured by the reduction in the asymmetry of movement (i.e. the number of clockwise (CW) rotations vs. the number of counterclockwise (CCW) rotations). 50 female Fischer rats aged 18 months were stereotactically injected with 4 μl […] 6-OHDA into the right MFB. […] Motor asymmetry was monitored in automated rotometer bowls (TSE Systems, Germany) for 120 minutes after injection of amphetamine (2.5 mg/kg s.c.). The net rotation asymmetry score for amphetamine test was calculated by subtracting contralateral turns from the ipsilateral turns to the lesion side.

Data set [4] has as its system α-synuclein and phospho-Tau (p-Tau). Kind of data set: Immunohistochemistry for α-synuclein and p-Tau in SNc of 6-OHDA-lesioned rats. The class given is in vivo, rat. To be noted: 1 mg/kg s.c., 3 months; p<0.05 vs. vehicle. As to the method:
After 3 months, 10 randomly selected rats (5 from each group) were terminally anaesthetised. Blood and striatal tissue samples were taken and the posterior brain block containing the SNc was fixed by immersion in 4% paraformaldehyde in 0.1 M phosphate buffer (PB) for 24 hours. Following cryoprotection in 30% sucrose in 0.1M PB for 2-3 days and freezing the blocks in liquid nitrogen, samples were stored at −80° C. for α-synuclein and phospho-Tau (p-Tau) immunohistochemistry (IHC). This was repeated for 11 rats at 6 months (randomly selected from the surviving rats in both groups). Immunohistochemistry for α-synuclein and p-Tau was carried out. Brain samples containing the SNc region were double-immunostained for p-Tau (AT8) and α-synuclein. The number of positive cells for each single stain and the number of double-stained cells was manually counted for 6 sections per animal.

The conditions of data set [5]: in vivo. As to the method: Pharmacokinetic analysis was carried out by the Applicant. […] Therefore, even accounting for species differences in pharmacokinetics, preferred oral doses of tacrolimus in humans for the treatment of ALS would be expected to be below 1.3 mg/day and are likely to be below 0.55 mg/day.
Based on pharmacokinetic analysis, an oral tacrolimus dose of 2 mg/kg/day in the mouse is believed to correspond to a human oral dose of about 0.33-0.44 mg/day for a 70 kg person.

For a further data set, the system named is ALS. As to conditions: Pong et al., Current Drug Targets 2003; cited from earlier work.

SMILES strings stand for the structures.

On to `C=CC[C@@H]1/C=C(\C)C[C@H](C)C[C@H](OC)[C@H]2O[C@@](O)(C(=O)C(=O)N3CCCC[C@H]3C(=O)O[C@H](/C(C)=C/[C@@H]3CC[C@@H](O)[C@H](OC)C3)[C@H](C)[C@@H](O)CC1=O)[C@H](C)C[C@@H]2OC` [tacrolimus, Tacrolimus], for which the lifespan entry in data set [1] is on record as “significantly increasing the lifespan”. Moreover, the “motor neuron neurite network” value in data set [2] (p<0.05 all concentrations vs. Aβ) was “concentration-dependent increase”. Besides, in data set [2] (p<0.05 for 100 nM, 1 μM vs. Aβ), the motor neuron survival entry was “concentration-dependent increase”. Moreover, in data set [3], the amphetamine-induced rotational asymmetry entry is listed as “significant reduction in rotational asymmetry”. For the same compound, in data set [4], the “number of cells staining positively for p-Tau” value is on record as “lower counts of positive cells” and the “number of cells staining positively for α-synuclein” value is on record as “lower counts of positive cells”. For the same compound, in data set [5], the “human oral dose corresponding to oral dose of 2 mg/kg/day in the mouse” value is on record as 0.44-0.33. For the same compound, the “efficacy in the treatment of ALS” value with ALS is listed as “ineffective”.
